pKi: −log10 of the molar value. Structures can show the parent of a compound that is named as a salt.

T1 sequence (Q9H3N8 whole entry): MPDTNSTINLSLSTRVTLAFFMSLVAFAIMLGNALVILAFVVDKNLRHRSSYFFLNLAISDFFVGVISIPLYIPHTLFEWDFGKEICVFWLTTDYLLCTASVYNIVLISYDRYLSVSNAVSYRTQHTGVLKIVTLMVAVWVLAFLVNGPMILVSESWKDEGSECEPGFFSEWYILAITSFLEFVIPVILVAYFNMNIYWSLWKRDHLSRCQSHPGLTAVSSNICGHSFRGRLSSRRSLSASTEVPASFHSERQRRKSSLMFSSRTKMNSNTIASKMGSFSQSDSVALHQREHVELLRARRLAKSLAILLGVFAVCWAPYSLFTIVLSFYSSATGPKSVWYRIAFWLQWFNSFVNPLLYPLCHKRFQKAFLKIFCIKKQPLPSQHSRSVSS

The experiment concerns the target T1, human histamine H4 receptor (Homo sapiens, UniProt Q9H3N8).
T1 construct: expressed in transfected cells; host or cells: SK-N-MC cells or COS7 cells, transiently transfected with pH4R; cell membranes
Briefly: Binding Assay on Recombinant Human Histamine H4 Receptor (3H-histamine competition, membranes of transfected SK-N-MC or COS7 cells). Particulars: competition with 3H-histamine (5 nM ligand, KD 5 nM), Cheng-Prusoff; mean of results; > = solubility limit or highest concentration tested. Here is the method:
Binding Assay on Recombinant Human Histamine H4 Receptor
SK-N-MC cells or COS7 cells were transiently transfected with pH4R and grown in 150 cm^2 tissue culture dishes. Cells were washed with saline solution, scraped with a cell scraper and collected by centrifugation (1000 rpm, 5 min). Cell membranes were prepared by homogenization of the cell pellet in 20 mM Tris-HCl with a polytron tissue homogenizer for 10 sec at high speed. Homogenate was centrifuged at 1000 rpm for 5 min at 4° C. The supernatant was then collected and centrifuged at 20,000×g for 25 min at 4° C. The final pellet was resuspended in 50 mM Tris-HCl. […] Incubation occurred at room temperature for 45 min. Membranes were harvested by rapid filtration over Whatman GF/C filters and washed 4 times with ice-cold 50 mM Tris HCl. Filters were then dried, mixed with scintillant and counted for radioactivity. SK-N-MC or COS7 cells expressing human histamine H4 receptor were used to measure the affinity of binding of other compounds and their ability to displace ^3H-ligand binding by incubating the above-described reaction in the presence of various concentrations of inhibitor or compound to be tested.
The term pKi denotes the negative decadic logarithm of the Ki, by convention in mol/L. In the case of `CN1CCC[C@@H]2CN(C(=O)c3cc4ccccc4[nH]3)C[C@@H]21` (relative stereo) [Example 27, cis-(1H-Indol-2-yl)-(1-methyl-octahydro-pyrrolo[3,4-b]pyridin-6-yl)-methanone], the negative-log Ki (pKi) was 6.25.

For `O=C(c1cc2cccc([N+](=O)[O-])c2[nH]1)N1C[C@H]2CCCN[C@H]2C1` (relative stereo) [Example 14, cis-(7-Nitro-1H-indol-2-yl)-(octahydro-pyrrolo[3,4-b]pyridin-6-yl)-methanone hydrochloride salt], the pKi is less than 5.00.

Turning to `CN[C@H]1CCN(C(=O)c2cc3cc(Cl)ccc3[nH]2)C1` [Example 9, (S)-(5-Chloro-1H-indol-2-yl)-(3-methylamino-pyrrolidin-1-yl)-methanone], the pKi was 6.27.

Take `O=C(c1nc2cc(Cl)ccc2[nH]1)N1C[C@H]2CCCN[C@H]2C1` (relative stereo) [Example 7, cis-(5-Chloro-1H-benzoimidazol-2-yl)-(octahydro-pyrrolo[3,4-b]pyridin-6-yl)-methanone]: the pKi was 7.70.

`CN[C@@H]1CCN(C(=O)c2cc3c(F)cc(F)cc3[nH]2)C1` [Example 23, (R)-(4,6-Difluoro-1H-indol-2-yl)-(3-methylamino-pyrrolidin-1-yl)-methanone]: the pKi was 6.17.

Take `CN(C)C1CCN(C(=O)c2cc3ccccc3[nH]2)C1` (centres unmarked) [Example 26, (3-Dimethylamino-pyrrolidin-1-yl)-(1H-indol-2-yl)-methanone]: the pKi was 5.05.

Consider `O=C(c1cc2cc(Cl)ccc2[nH]1)N1C[C@@H]2CCCN[C@@H]2C1` [Example 12A, (S,S)-(5-Chloro-1H-indol-2-yl)-(octahydro-pyrrolo[3,4-b]pyridin-6-yl)-methanone], for which the pKi is 6.74.

Take `CN[C@@H]1CCN(C(=O)c2cc3cc(F)ccc3[nH]2)C1` [Example 17, (R)-(5-Fluoro-1H-indol-2-yl)-(3-methylamino-pyrrolidin-1-yl)-methanone]: the pKi was 7.42.

As for `CN(C)C1CCN(C(=O)c2nc3ccccc3[nH]2)C1` (centres unmarked) [Example 31, (1H-Benzoimidazol-2-yl)-(3-dimethylamino-pyrrolidin-1-yl)-methanone], the pKi was 5.09.

On to `O=C(c1cc2cc(Cl)ccc2[nH]1)N1C[C@H]2CCCN[C@H]2C1` (relative stereo) [Example 10, cis-(5-Chloro-1H-indol-2-yl)-(octahydro-pyrrolo[3,4-b]pyridin-6-yl)-methanone], for which the negative-log Ki (pKi) is 8.10.

For the compound `CN(C)C1CCN(C(=O)c2cc3cc(Cl)ccc3[nH]2)C1` (centres unmarked) [Example 25, (5-Chloro-1H-indol-2-yl)-(3-dimethylamino-pyrrolidin-1-yl)-methanone], the pKi is 5.94.

As to `O=C(c1cc2cc(F)ccc2[nH]1)N1C[C@H]2CCCN[C@H]2C1` (relative stereo) [Example 13, cis-(5-Fluoro-1H-indol-2-yl)-(octahydro-pyrrolo[3,4-b]pyridin-6-yl)-methanone hydrochloride salt], the pKi is 7.55.

For the compound `CN[C@H]1CCN(C(=O)c2cc3cc(F)ccc3[nH]2)C1` [Example 16, (S)-(5-Fluoro-1H-indol-2-yl)-(3-methylamino-pyrrolidin-1-yl)-methanone], the pKi was 6.17.

Consider `CN1CCC[C@@H]2CN(C(=O)c3cc4cc(Cl)ccc4[nH]3)C[C@@H]21` (relative stereo) [Example 28, cis-(5-Chloro-1H-indol-2-yl)-(1-methyl-octahydro-pyrrolo[3,4-b]pyridin-6-yl)-methanone], for which the pKi was 6.62.

Take `CNC1CCN(C(=O)c2nc3ccccc3[nH]2)C1` (centres unmarked) [Example 30, (1H-Benzoimidazol-2-yl)-(3-methylamino-pyrrolidin-1-yl)-methanone hydrochloride salt]: the pKi is 5.70.

As to `NC1CCN(C(=O)c2cc3cc(Cl)ccc3[nH]2)C1` (centres unmarked) [Example 24, (3-Amino-pyrrolidin-1-yl)-(5-chloro-1H-indol-2-yl)-methanone hydrochloride salt], the pKi is 6.72.

With `O=C(c1cc2cc(Cl)ccc2[nH]1)N1C[C@@H]2CCCN[C@@H]2C1` [Example 12, (S,S)-(5-Chloro-1H-indol-2-yl)-(octahydro-pyrrolo[3,4-b]pyridin-6-yl)-methanone hydrochloride salt], the pKi was less than 5.00.

For the compound `CNC1CCN(C(=O)c2cc3ccccc3[nH]2)C1` (centres unmarked) [Example 3, (1H-Indol-2-yl)-(3-methylamino-pyrrolidin-1-yl)-methanone trifluoroacetic acid salt], the pKi is 6.37.

For `O=C(c1cc2ccccc2[nH]1)N1C[C@@H]2C[C@H]1CN2` [Example 1, (S,S)-(2,5-Diaza-bicyclo[2.2.1]hept-2-yl)-(1H-indol-2-yl)-methanone hydrochloride salt], the pKi is 5.95.

As for `CN[C@H]1CCN(C(=O)c2cc3cc(C)ccc3[nH]2)C1` [Example 20, (S)-(3-Methylamino-pyrrolidin-1-yl)-(5-methyl-1H-indol-2-yl)-methanone], the pKi was less than 5.00.

Take `CN[C@@H]1CCN(C(=O)c2cc3cc(C)ccc3[nH]2)C1` [Example 21, (R)-(3-Methylamino-pyrrolidin-1-yl)-(5-methyl-1H-indol-2-yl)-methanone]: the pKi was 6.55.

Consider `Cc1ccc2[nH]c(C(=O)N3C[C@H]4CCCN[C@H]4C3)cc2c1` (relative stereo) [Example 29, cis-(5-Methyl-1H-indol-2-yl)-(octahydro-pyrrolo[3,4-b]pyridin-6-yl)-methanone hydrochloride salt], for which the pKi is 7.39.

For `CN[C@@H]1CCN(C(=O)c2cc3cc(Cl)ccc3[nH]2)C1` [Example 8, (R)-(5-Chloro-1H-indol-2-yl)-(3-methylamino-pyrrolidin-1-yl)-methanone], the pKi was 7.28.

Consider `CN[C@H]1CCN(C(=O)c2cc3c(F)cc(F)cc3[nH]2)C1` [Example 22, (S)-(4,6-Difluoro-1H-indol-2-yl)-(3-methylamino-pyrrolidin-1-yl)-methanone], for which the pKi is less than 5.30.

With `O=C(c1cc2cc(Cl)ccc2[nH]1)N1C[C@H]2CCCN[C@H]2C1` [Example 11, (R,R)-(5-Chloro-1H-indol-2-yl)-(octahydro-pyrrolo[3,4-b]pyridin-6-yl)-methanone hydrochloride salt], the pKi is 7.57.

Regarding `CN[C@@H]1CCN(C(=O)c2cc3ccccc3[nH]2)C1` [Example 4, (R)-(1H-Indol-2-yl)-(3-methylamino-pyrrolidin-1-yl)-methanone hydrochloride salt], the pKi was 6.80.

With `O=C(c1cc2ccccc2[nH]1)N1C[C@H]2CCCN[C@H]2C1` (relative stereo) [Example 5, cis-(1H-Indol-2-yl)-(octahydro-pyrrolo[3,4-b]pyridin-6-yl)-methanone trifluoroacetic acid salt], the pKi was 7.40.

On to `O=C(c1cc2ccccc2[nH]1)N1C[C@@H]2CCCN[C@@H]2C1` [Example 6, (S,S)-(1H-Indol-2-yl)-(octahydro-pyrrolo[3,4-b]pyridin-6-yl)-methanone trifluoroacetic acid salt], for which the pKi is less than 5.00.

As to `O=C(c1cc2c(F)cc(F)cc2[nH]1)N1C[C@H]2CCCN[C@H]2C1` (relative stereo) [Example 15, cis-(4,6-Difluoro-1H-indol-2-yl)-(octahydro-pyrrolo[3,4-b]pyridin-6-yl)-methanone hydrochloride salt], the pKi is 6.66.

Turning to `CN[C@H]1CCN(C(=O)c2cc3cccc(C)c3[nH]2)C1` [Example 18, (S)-(3-Methylamino-pyrrolidin-1-yl)-(7-methyl-1H-indol-2-yl)-methanone], the pKi was less than 5.00.

As to `CN[C@@H]1CCN(C(=O)c2cc3cccc(C)c3[nH]2)C1` [Example 19, (R)-(3-Methylamino-pyrrolidin-1-yl)-(7-methyl-1H-indol-2-yl)-methanone], the pKi is 6.82.

As for `CN1C[C@@H]2C[C@H]1CN2C(=O)c1cc2ccccc2[nH]1` [Example 2, (S,S)-(1H-Indol-2-yl)-(5-methyl-2,5-diaza-bicyclo[2.2.1]hept-2-yl)-methanone], the pKi is 5.49.

The values are drawn from patent publication US7544698B2, “Indoles and benzoimidazoles as modulators of the histamine H4 receptor” (Janssen Pharmaceutica, N.V., priority 2006, dated 2009).
